{"source": "patent US20230374503A1", "about": "“COMBINATION” (AstraZeneca AB, priority 2014, published 2023)", "key": {"[1]": {"system": "advanced melanoma", "details": "phase III; cited from earlier work"}, "[2]": {"system": "DLBCL and HCC", "assay": "AZD9150 Phase I clinical trials", "assay_type": "in vivo, human"}, "[3]": {"system": "CT-26 tumors", "assay": "CT-26 tumor volume with control ASO and isotype control antibody (Example 4)", "assay_type": "in vivo, mouse", "details": "FIG. 4", "experimental": "(§1) The antitumor efficacy of mouse STAT3 ASO in combination with antibodies targeting PD-L1 or CTLA-4, or with an OX40 ligand fusion protein, were evaluated in three mouse syngeneic tumor models: CT-26 (colorectal), 4T1 (mammary) and A20 (lymphoma). Details of tumor implantation and treatment schedules for each model are in the table below. The QD×5/wk dosing schedule for the STAT3 ASO (same ASO as used in Example 1) was 5 days of treatment followed by 2 days without treatment. The 2×/wk dosing schedule for antibodies was 2 treatments/wk evenly spaced over the course of the week (e.g., Monday and Thursday, or Tuesday and Friday, etc.). ASO treatments began before randomization into treatment groups. […] There were ten mice in each treatment group.\n(§2) The mouse STAT3 ASO was formulated in PBS and dosed subcutaneously. The Abs and FP were also formulated in PBS, and dosed introperitoneally. During the course of the experiment, tumor length and width were measured by caliper, and tumor volume calculated using the formula volume=(length×width^2)*π/6.\nThe CT-26 experiment in Example 3 included treatment with a control ASO (AZD9150) and an isotype control antibody (rat IgG2b, product LTF-2, purchased from BioXCell, West Lebanon NH) as negative controls."}, "[4]": {"system": "mouse STAT3 sequences", "assay": "Cross reaction of human STAT3 ASO with mouse STAT3 sequences", "details": "human STAT3 targeted ASO"}, "[5]": {"system": "immune-related genes", "assay": "Nanostring gene expression profiling of patient tumor biopsies, Phase I trial (Example 8)", "assay_type": "in vivo, human", "details": "DLBCL patients; 2 or 3 mg/kg; 4-6 weeks on treatment vs baseline; five of six signature genes", "experimental": "Tumor biopsies were collected in a Phase I clinical trial from cancer patients treated with AZD9150 before treatment started and at 4-6 weeks after treatment commenced. Patients received three loading doses 2 or 3 mg/kg AZD9150 during the first week on days 1, 3, and 5, followed by weekly doses thereafter. Nine of the sets of biopsies were from patients with Diffuse Large B Cell Lymphoma, two were from patients with follicular lymphoma, and one was from a patient with non-small cell lung cancer. The biopsies were formalin fixed and paraffin embedded and sectioned. RNA was isolated from six five-micron sections of each biopsy and subjected to Nanostring gene expression profiling analysis using the nCounter Human Immunology Codeset representing 594 immune-related genes. Raw data were calibrated according to Veldman-Jones et al., (Cancer Research. 75:2587, 2015) and analyzed for changes on-treatment compared to the baseline pretreatment samples. A heatmap representing unsupervised clustering of the largest and most statistically relevant gene expression changes in DLBCL was generated."}, "[6]": {"system": "xenograft model", "details": "via a T-cell dependent mechanism; cited from earlier work"}, "[7]": {"system": "CT-26 (colorectal), 4T1 (mammary) and A20 (lymphoma)", "assay": "Three mouse syngeneic tumor models, tumor volume (Example 3)", "assay_type": "in vivo", "details": "at the doses and schedules of Example 3; FIG. 3", "experimental": "as §1, §2"}}, "note": "In the oligonucleotide strings, read from the 5' end, every base follows the letter of its sugar. An asterisk marks phosphorothioate; unmarked linkages are phosphodiester. Other units and linkages are bracketed, terminal groups are in braces. A string of capitals states the bases alone. k = constrained ethyl (cEt); [5mC] = 5-methylcytosine; d = 2'-deoxy (DNA)", "data": [{"molecule": "tremelimumab: human IgG2 monoclonal antibody highly selective for CTLA-4", "values": [{"measurement": "overall survival compared to standard of care (temozolomide or dacarbazine)", "setting": "[1]", "result": "did not significantly increase the overall survival"}]}, {"molecule": "AZD9150: human STAT3 antisense 3-10-3 cEt gapmer, phosphorothioate, 5-methylcytosines, CTATTTGGATGTCAGC (SEQ ID NO: 2) (antisense k[5mC]*kT*kA*dT*dT*dT*dG*dG*dA*dT*dG*dT*d[5mC]*kA*kG*k[5mC])", "values": [{"measurement": "clinical response", "setting": "[2]", "result": "clinical responses in DLBCL and HCC at tolerated doses"}, {"measurement": "enhancement of the activity of the anti-PD-L1 antibody", "setting": "[3]; AZD9150 plus PD-L1 Ab, CT-26 tumors", "result": "no enhancement of the activity of the anti-PD-L1 antibody"}, {"measurement": "antitumor activity of negative controls", "setting": "[3]; mice bearing CT-26 tumors", "result": "No Antitumor Activity"}, {"measurement": "cross reaction with mouse STAT3 sequences", "setting": "[4]", "result": "does not cross react with mouse STAT3 sequences"}, {"measurement": "upregulated \"interferon gamma gene signature\" genes in tumor biopsies", "setting": "[5]", "result": "STAT1, IFN-gamma, CXCL9, CXCL10, and IDO"}]}, {"molecule": "MEDI4736: human monoclonal antibody directed against human PD-L1 (antibody, V domains shown, MEDI4736 VH; Sequence 72 from PCT/US2010/058007; MEDI4736 VL; Sequence 77 from PCT/US2010/058007, human monoclonal antibody directed against human PD-L1) VH: EVQLVESGGGLVQPGGSLRLSCAASGFTFSRYWMSWVRQAPGKGLEWVANIKQDGSEKYYVDSVKGRFTISRDNAKNSLYLQMNSLRAEDTAVYYCAREGGWFGELAFDYWGQGTLVTVSS VL: EIVLTQSPGTLSLSPGERATLSCRASQRVSSSYLAWYQQKPGQAPRLLIYDASSRATGIPDRFSGSGSGTDFTLTISRLEPEDFAVYYCQQYGSLPWTFGQGTKVEIK", "values": [{"measurement": "tumor growth in a xenograft model", "setting": "[6]", "result": "inhibits tumor growth"}]}, {"molecule": "OX40 ligand FP: Mouse OX40 ligand fusion protein generated in house, SEQ ID NO: 37 and 38 (protein, misc_feature 1..1248 DNA Sequence of mouse construct mIgG1mTF2mOX40L) VPRDCGCKPCICTVPEVSSVFIFPPKPKDVLTITLTPKVTCVVVDISKDDPEVQFSWFVDDVEVHTAQTQPREEQFNSTFRSVSELPIMHQDWLNGKEFKCRVNSAAFPAPIEKTISKTKGRPKAPQVYTIPPPKEQMAKDKVSLTCMITDFFPEDITVEWQWNGQPAENYKNTQPIMDTDGSYFVYSKLNVQKSNWEAGNTFTCSVLHEGLHNHHTEKSLSHSPGKRLDQDKIEALSNKVQQLERSIGLKDLAMADLEQKVSELEVSTSSPAKDPPIQRLRGAVTRCEDGQLFISSYKNEYQTMEVQNNSVVIKCDGLYIIYLKGSFFQEVKIDLHFREDHNPISIPMLNDGRRIVFTVVASLAFKDKVYLTVNAPDTLCEHLQINDGELIVVQLTPGYCAPEGSYHSTVNQVPL", "values": [{"measurement": "single agent antitumor activity", "setting": "[7]", "result": "weak to modest single agent antitumor activity"}]}]}
